According to ChEMBL document CHEMBL1201862, “PubChem BioAssay data set” (2004):
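Five concentrations, 48 hours, 96-well plates. At the GI50, growth is halved.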 Activity calls are given as the source filed them. Rule as the data show it: active = GI50 up to about 1.1 µM and inactive = higher.

Key:
Experiment in all cases: inhibition of tumour cell growth, NCI panel, 48 h
SK-MEL-5 = tested on: SK-MEL-5
OVCAR-8 = tested on: OVCAR-8
ACHN = tested on: ACHN
NCI-H226 = tested on: NCI-H226
MCF7 = tested on: MCF7
SR = tested on: SR
U-251 = tested on: U-251
SF-268 = tested on: SF-268
PC-3 = tested on: PC-3
NCI-H23 = tested on: NCI-H23
OVCAR-4 = tested on: OVCAR-4
HOP-92 = tested on: HOP-92
UACC-257 = tested on: UACC-257
SK-MEL-28 = tested on: SK-MEL-28
HOP-62 = tested on: HOP-62
KM12 = tested on: KM12
Hs-578T = tested on: Hs-578T
LOX IMVI = tested on: LOX IMVI
DU-145 = tested on: DU-145
NCI-H522 = tested on: NCI-H522
NCI-H460 = tested on: NCI-H460
MDA-MB-231 = tested on: MDA-MB-231
OVCAR-3 = tested on: OVCAR-3
HCT-116 = tested on: HCT-116
SNB-75 = tested on: SNB-75
A498 = tested on: A498
UACC-62 = tested on: UACC-62
HL-60 = tested on: HL-60
UO-31 = tested on: UO-31
SK-MEL-2 = tested on: SK-MEL-2
SW-620 = tested on: SW-620
Malme-3M = tested on: Malme-3M
SNB-19 = tested on: SNB-19
SN12C = tested on: SN12C
M14 = tested on: M14
MDA-N = tested on: MDA-N
HCT-15 = tested on: HCT-15
A549 = tested on: A549
SF-539 = tested on: SF-539
OVCAR-5 = tested on: OVCAR-5
EKVX = tested on: EKVX
MDA-MB-435 = tested on: MDA-MB-435
HT-29 = tested on: HT-29
K562 = tested on: K562
IGROV-1 = tested on: IGROV-1
SF-295 = tested on: SF-295
MOLT-4 = tested on: MOLT-4
786-0 = tested on: 786-0
BT-549 = tested on: BT-549
CCRF-CEM = tested on: CCRF-CEM
HCC 2998 = tested on: HCC 2998
RPMI-8226 = tested on: RPMI-8226
COLO 205 = tested on: COLO 205
SK-OV-3 = tested on: SK-OV-3
CAKI-1 = tested on: CAKI-1
RXF 393 = tested on: RXF 393
T47D = tested on: T47D
NCI/ADR-RES = tested on: NCI/ADR-RES
TK-10 = tested on: TK-10

Compound: O=C1NC(=O)C(C(CC(=O)c2ccc(Cl)cc2)c2ccc(Cl)cc2)C(=O)N1 (stereo unspecified)
- GI50 (SK-MEL-5): > 100 µM (inactive)
- GI50 (OVCAR-8): > 100 µM (inactive)
- GI50 (ACHN): > 100 µM (inactive)
- GI50 (NCI-H226): > 100 µM (inactive)
- GI50 (MCF7): 17.2 µM (inactive)
- GI50 (SR): 35.2 µM (inactive)
- GI50 (U-251): > 100 µM (inactive)
- GI50 (SF-268): 36.2 µM (inactive)
- GI50 (PC-3): > 100 µM (inactive)
- GI50 (NCI-H23): > 100 µM (inactive)
- GI50 (OVCAR-4): > 100 µM (inactive)
- GI50 (HOP-92): 40.4 µM (inactive)
- GI50 (UACC-257): > 100 µM (inactive)
- GI50 (SK-MEL-28): > 100 µM (inactive)
- GI50 (HOP-62): > 100 µM (inactive)
- GI50 (KM12): 37.8 µM (inactive)
- GI50 (Hs-578T): > 100 µM (inactive)
- GI50 (LOX IMVI): 54 µM (inactive)
- GI50 (DU-145): > 100 µM (inactive)
- GI50 (NCI-H522): > 100 µM (inactive)
- GI50 (NCI-H460): > 100 µM (inactive)
- GI50 (MDA-MB-231): > 100 µM (inactive)
- GI50 (OVCAR-3): 60.4 µM (inactive)
- GI50 (HCT-116): 34 µM (inactive)
- GI50 (SNB-75): > 100 µM (inactive)
- GI50 (A498): > 100 µM (inactive)
- GI50 (UACC-62): > 100 µM (inactive)
- GI50 (HL-60): > 100 µM (inactive)
- GI50 (UO-31): > 100 µM (inactive)
- GI50 (SK-MEL-2): > 100 µM (inactive)
- GI50 (SW-620): > 100 µM (inactive)
- GI50 (Malme-3M): 0.225 µM (active)
- GI50 (SNB-19): > 100 µM (inactive)
- GI50 (SN12C): > 100 µM (inactive)
- GI50 (M14): > 100 µM (inactive)
- GI50 (MDA-N): 92 µM (inactive)
- GI50 (HCT-15): > 100 µM
- GI50 (A549): > 100 µM (inactive)
- GI50 (SF-539): 18 µM (inactive)
- GI50 (OVCAR-5): > 100 µM (inactive)
- GI50 (EKVX): 17.1 µM (inactive)
- GI50 (MDA-MB-435): 89.1 µM (inactive)
- GI50 (HT-29): > 100 µM (inactive)
- GI50 (K562): > 100 µM (inactive)
- GI50 (IGROV-1): > 100 µM (inactive)
- GI50 (SF-295): > 100 µM (inactive)
- GI50 (MOLT-4): 74 µM (inactive)
- GI50 (786-0): > 100 µM (inactive)
- GI50 (BT-549): > 100 µM (inactive)
- GI50 (CCRF-CEM): 42.2 µM (inactive)
- GI50 (HCC 2998): 6.73 µM (inactive)
- GI50 (RPMI-8226): 33.7 µM (inactive)

Compound: O=c1[nH]nc(-c2ccccc2)n1/N=C/c1ccco1
- GI50 (SK-MEL-5): > 100 µM (inactive)
- GI50 (COLO 205): > 100 µM (inactive)
- GI50 (OVCAR-8): > 100 µM (inactive)
- GI50 (ACHN): > 100 µM (inactive)
- GI50 (MCF7): 0.0719 µM (active)
- GI50 (SR): > 100 µM (inactive)
- GI50 (U-251): > 100 µM (inactive)
- GI50 (SF-268): > 100 µM (inactive)
- GI50 (PC-3): > 100 µM (inactive)
- GI50 (SK-OV-3): > 100 µM (inactive)
- GI50 (NCI-H23): > 100 µM (inactive)
- GI50 (OVCAR-4): 30.1 µM (inactive)
- GI50 (HOP-92): > 100 µM (inactive)
- GI50 (UACC-257): > 100 µM (inactive)
- GI50 (SK-MEL-28): > 100 µM (inactive)
- GI50 (CAKI-1): > 100 µM (inactive)
- GI50 (HOP-62): > 100 µM (inactive)
- GI50 (KM12): > 100 µM (inactive)
- GI50 (Hs-578T): > 100 µM (inactive)
- GI50 (LOX IMVI): > 100 µM (inactive)
- GI50 (DU-145): > 100 µM (inactive)
- GI50 (NCI-H522): > 100 µM (inactive)
- GI50 (NCI-H460): > 100 µM (inactive)
- GI50 (OVCAR-3): > 100 µM (inactive)
- GI50 (HCT-116): > 100 µM (inactive)
- GI50 (RXF 393): > 100 µM (inactive)
- GI50 (SNB-75): > 100 µM (inactive)
- GI50 (A498): > 100 µM (inactive)
- GI50 (UACC-62): 83.2 µM (inactive)
- GI50 (HL-60): > 100 µM (inactive)
- GI50 (UO-31): > 100 µM (inactive)
- GI50 (SK-MEL-2): > 100 µM (inactive)
- GI50 (SW-620): > 100 µM (inactive)
- GI50 (T47D): > 100 µM (inactive)
- GI50 (Malme-3M): > 100 µM (inactive)
- GI50 (SNB-19): > 100 µM (inactive)
- GI50 (SN12C): 29.2 µM (inactive)
- GI50 (NCI/ADR-RES): > 100 µM (inactive)
- GI50 (M14): > 100 µM (inactive)
- GI50 (MDA-N): > 100 µM (inactive)
- GI50 (HCT-15): > 100 µM
- GI50 (A549): > 100 µM (inactive)
- GI50 (SF-539): > 100 µM (inactive)
- GI50 (OVCAR-5): > 100 µM (inactive)
- GI50 (EKVX): > 100 µM (inactive)
- GI50 (MDA-MB-435): > 100 µM (inactive)
- GI50 (HT-29): > 100 µM (inactive)
- GI50 (IGROV-1): > 100 µM (inactive)
- GI50 (SF-295): > 100 µM (inactive)
- GI50 (MOLT-4): > 100 µM (inactive)
- GI50 (786-0): > 100 µM (inactive)
- GI50 (TK-10): > 100 µM (inactive)
- GI50 (BT-549): 32.6 µM (inactive)
- GI50 (CCRF-CEM): > 100 µM (inactive)
